Source: patent US20240264159A1 (priority 2021, published 2024)

Target: Spike SARS-CoV-2 foreign nanoparticles / coated host ACE2 nanoparticles (Severe acute respiratory syndrome coronavirus 2, UniProt P0DTC2, D614G)
Assay type: biochemical

## C[C@@H]1O[C@@H](O[C@H]2C[C@@H](O)[C@]3(CO)[C@H]4[C@H](O)C[C@]5(C)[C@@H](C6=CC(=O)OC6)CC[C@]5(O)[C@@H]4CC[C@]3(O)C2)[C@H](O)[C@H](O)[C@H]1O [ouabain]
  neutralization/blocking of fusion, coated host ACE2 nanoparticles: Neutralization was further blocked
